The source of these data is patent US9980980B2, “Compounds, compositions and methods for protecting brain health in neurodegenerative disorders” (Amazentis SA, priority 2009, dated 2018).

Broadly, the IC50 is the concentration at which inhibition is half-maximal.

For one test, the target named is T1, Aβ(25-35) (Homo sapiens, UniProt P05067).
T1 construct: Monomeric Aβ(25-35) purchased from Bachem Pharma; purchased Bachem Pharma
The test is described as follows: Screening assay for inhibition of Aβ(25-35) aggregation (Thioflavin-T fluorescence). It is filed as biochemical. Particulars: molecule at purity above 90%; ThT fluorescence, 25° C., 0-120 minutes; read-out: IC50 for inhibiting aggregation of Aβ25-35. The protocol:
Monomeric Aβ(25-35) purchased from Bachem Pharma, was dissolved in distilled sterile water at 4° C., then sonitcated for about 1 minute. The peptide stock solution was then aliquoted and stored at −20° C. All steps were carried out at 4° C. to prevent Aβ(25-35) polymerization.
Fractions of polyphenols were all standardized to 10 μg/mL, before being assessed and stored at −20° C. Measurement of inhibition was performed by following the kinetic of Aβ(25-35) polymerization in a reaction mixture containing 70 μL phosphate buffer, 10 μL Thioflavin-T (100 μM stock solution), 10 μL MeOH (10 mM final concentration) pH 7.2 and 10 μL of Aβ(25-35) (100 μM final concentration) adapting known in the art procedures. LeVine, H., 3rd (1993). “Thioflavine T interaction with synthetic Alzheimer's disease beta-amyloid peptides: detection of amyloid aggregation in solution.” Protein Sci. 2(3): 404-10. When Aβ(25-35) was added to the buffer solution, the solution was sonicated for an additional minute.
To study the inhibitory activity of the fractions, the extracts were diluted to the final concentration in MeOH and 10 μL was added to the mixture at 4° C. Fluorescence spectroscopy was recorded with the excitation at 450 nm and emission at 490 nm. The polymerization kinetics was monitored at 25° C. between 0 and 120 minutes. The IC50 was calculated by using a least-square fitting technique to match the experimental data with a sigmoidal curve. The IC50 was the effective concentration dose of the compound inhibiting the formation of Aβ fibrils to 50% of the control value.

In the next test the test system is PC12 cells. The test is described as follows: Inhibition of Aβ-oligomer induced neuronal cell death in PC12 cells (MTT). It is filed as cell-based, Rat. The note with it: pre-aggregated Aβ (25-35) 10 μM, 24 h; MTT cell viability. The protocol: The fractions that were able to inhibits oligomer formation were also tested for their ability to inhibit Aβ-oligomer induced neuronal cell death using […], a well known and accepted model of neuronal cell culture.
Beta Amyloid peptide (Aβ) 25-35 trifluoroacetate salt (ref H-1192, lot 2000718) was purchased from Bachem (Bubebdorf, Switzerland). Thiazolyl Blue Tetrazolium Bromide (MTT, ref. M2128) was purchased from Sigma-Aldrich (Saint-Quentin Fallvier, France). Albumin Bovine Fraction V (BSA, ref 160069) was purchased from MPBio (Irvine, USA).
Cells: Rat Pheochromocytoma cells (PC12) were maintained in DMEM (4.5 g/L glucose) supplemented with 10% Horse Serum (HS), 5% Fetal Bovine Serum (FCS) and 100 U/mL penicillin and 100 μg/mL Streptomycin at 37° C. under 5% CO2.
Preparation of Aβ (25-35): It has been reported that Aβ oligomers are more toxic to neurons than monomers. […]
Determination of Hydro-Alcoholic Pomegranate Extracts Ability to Protect PC12 Cells Against Aβ Insult: The ability of Pomegranate extracts to protect PC12 cells from Aβ (25-35) oligomer induced toxicity was determined by measuring reduction of MTT to MTT formazan, which reflects cell viability. […] The level of MTT reduction and thus cell viability was determined by a colorimetric assay measuring the optical density at 595 nm using a microplate reader (BioTek EL808).

For the compound `O=C1OC[C@H]2OC(O)[C@@H]3OC(=O)c4cc(O)c(O)c(O)c4-c4c(cc(O)c(O)c4O)C(=O)O[C@H]3[C@@H]2OC(=O)c2cc(O)c(O)c(O)c2-c2c1cc(O)c(O)c2O` (stereo partly drawn) [Pedunculagin], the IC50 at Aβ(25-35) turned out to be 11 µM. With `O=C(O[C@@H]1O[C@@H]2COC(=O)c3cc(O)c(O)c(O)c3-c3c(cc(O)c(O)c3O)C(=O)O[C@H]([C@H]1O)[C@@H]2O)c1cc(O)c(O)c(O)c1` [Corilagin], the IC50 on Aβ(25-35) came out at 65 µM. Same read-out and setting: then Tellimagrandin, with 6.8 µM; and `O=C1OC[C@H]2OC(O)[C@H](O)[C@@H](O)[C@@H]2OC(=O)c2cc(O)c(O)c(O)c2-c2c(O)c(O)c3oc(=O)c4c(c(O)c(O)c5oc(=O)c2c3c54)-c2c1cc(O)c(O)c2O` (mixture of isomers) [Punicalin], with 10 µM. As for `O=C1O[C@H]2[C@@H]3OC(=O)c4cc(O)c(O)c(O)c4-c4c(O)c(O)c5oc(=O)c6c(c(O)c(O)c7oc(=O)c4c5c76)-c4c(cc(O)c(O)c4O)C(=O)OC[C@H]3OC(O)[C@@H]2OC(=O)c2cc(O)c(O)c(O)c2-c2c1cc(O)c(O)c2O` (mixture of isomers) [Punicalagin], in the test on PC12 cells, the “protection of PC12 neuronal cells from the toxicity of Aβ (25-35) oligomers” value is “responsible for the observed activity”. Also, the IC50 at Aβ(25-35) was 6 µM.
